Experiments:
[1] = test system: Tg(kdrl:GFP) zebrafish embryos; assay: Caudal vein plexus (CVP) formation / venous angiogenesis in Tg(kdrl:GFP) zebrafish embryos; type: in vivo; conditions: for anti-angiogenetic activity of aplexone analogs (inhibition of CVP formation / venous angiogenesis): SAR study, compared with aplexone; for ranking in the angiogenesis test: compounds of FIG. 11
Text: Images of GFP expression in Tg(kdrl:GFP) embryos were acquired using a Zeiss SV-11 epifluorescence microscope. Confocal images were acquired using a Carl Zeiss Laser Scanning Systems LSM510 equipped with 20× air, 20× water or 40× water immersion objectives. For single time point confocal images, embryos were anesthetized with 0.01% tricaine and embedded in 1% agarose. When capturing time-lapse confocal movies, embryos were mounted in 3.5% methylcellulose (Sigma-Aldrich) and imaged for 5 hrs on a heated stage at 28.5° C. The images obtained were analyzed using the Zeiss LSM Image Brower version 4 and Image J.
A synthetic chemical library containing 168 compounds (Castellano et al., 2007) and 300 chemicals from Biomol International LP, consisting of 72 ion channel inhibitors (Cat No. 2805), 84 kinase/phosphatase inhibitors (Cat No. 2831), 84 orphan ligands (Cat No. 2825), and 60 endocannabinoids (Cat No. 2801) were screened. The synthetic small molecules were prepared through nucleophilic phosphine catalysis of allenoates (Zhu et al., 2003). Four Tg(kdrl:GFP) embryos were placed into each well of 96-well plates containing a 10 μM solution of each chemical compound dissolved in embryo buffer with 0.1% DMSO. The embryos were raised at 28.5° C. and examined for defects in blood vessel development at 1 and 2 days after treatment. Standard parameters such as numbers of somites and head to body angle were used to determine the stages of zebrafish embryos (Kimmel et al., 1995).
Aplexone treatment described in this study was carried out at a concentration of 10 μM starting at 10 hpf unless otherwise specified.
8 ng tnnt2 MO (Gene Tools) (Sehnert et al., 2002), 3 nl of 4 mM GGTI-2133 (Calbiochem), 3 nl of 5 mM L744,832 (Calbiochem) and 1 nl of 2M mevalonate (Sigma-Aldrich) were injected into 1-2 cell stage embryos.
The library of 168 compounds^24 prepared through the nucleophilic phosphine catalysis of allenes were screened using Tg(kdrl:GFP) zebrafish. Four embryos were placed in each well of 96-well plates containing a 10 uM solution of each chemical compound dissolved in embryo buffer with 0.1% DMSO. The embryos were raised at 28.5° C. and defects in blood vessel development were examined at 1 and 2 days after fertilization.

[2] = test system: HMGCR pathway; assay: Cholesterol assay in embryo lysate (Amplex Red); type: in vivo, zebrafish; conditions: relative to 0.4% DMSO control
Procedure: The yolk was removed from embryos by vortexing in calcium-free Ringer's solution with 1 mM EDTA at 4° C. The embryos were then pelleted and washed with fresh calcium free Ringer's solution 5 times before being resuspended in cholesterol assay reaction buffer and were then lysed by sonication using a Sonifier 450 (Branson). Cholesterol levels in the embryo lysate were measured with an Amplex Red Cholesterol Assay Kit (Invitrogen) and Flex station II (Bucher Biotec). The total protein concentration of the embryo lysate was measured using a DC protein assay (Bio-Rad Laboratories) and SpectraMax plus (Molecular Devices).

Structure (SMILES)	anti-angiogenetic activity of aplexone analogs (inhibition of CVP formation / venous angiogenesis) [1]	also measured
CC(=O)C1=CCC(c2ccccc2)N(S(=O)(=O)c2ccccc2C)C1 (stereo not shown) [Compound 18]	without showing much decrease in the activity	–
CC(=O)C1=CCC(c2ccco2)N(S(=O)(=O)c2ccc(C)cc2)C1 (stereo not shown) [Compound 34]	inactive	–
c1ccc2c(-c3ccncc3)c[nH]c2c1 [Rockout, reference compound]	–	CVP formation ([1]; 50 μM Rockout, 48 hpf): recapitulated the caudal vein phenotype of aplexone treatment
CC(=O)C1=CCC(c2ccccc2)N(S(=O)(=O)c2ccccc2)C1 (stereo not shown) [Compound 17]	showed inhibitory activity for venous angiogenesis	–
CC(=O)C1=CCC(c2ccc3c(c2)OCO3)N(S(=O)(=O)c2ccc(C)cc2)C1 (stereo not shown) [Compound 32]	not active	–
Cc1ccc(S(=O)(=O)N2CC(C(C)O)=CC[C@@H]2c2ccccc2)cc1 (stereo partly shown) [Compound 6]	did not inhibit the CVP formation	–
CC(=O)C1=CCC(c2ccccc2)N(S(=O)(=O)c2cccc(C)c2)C1 (stereo not shown) [Compound 19]	without showing much decrease in the activity	–
CC(=O)C1=CCC(c2ccccc2)N(S(C)(=O)=O)C1 (stereo not shown) [Compound 13]	failed to inhibit the formation of CVP	embryonic cholesterol levels [2]: normal cholesterol levels; anti-angiogenetic activity of aplexone analogs (inhibition of CVP formation / venous angiogenesis) ([1]; listed as AP13): normal venous angiogenesis
CC(=O)C1=CCC(c2ccccc2)N(Cc2ccccc2)C1 (stereo not shown) [Compound 12]	failed to inhibit the formation of CVP	–
C=CCCC(=O)C1=CCC(c2ccccc2)N(S(=O)(=O)c2ccc(C)cc2)C1 (stereo not shown) [Compound 8]	showed the bioactivity of aplexone albeit to a lesser extent	–
CC(=O)C1=CCC(c2cccs2)N(S(=O)(=O)c2ccc(C)cc2)C1 (stereo not shown) [Compound 33]	active	ranking in the angiogenesis test [1]: most active
CC[C@H](C)[C@@H](CO[C@@H](Cc1ccccc1)C(=O)N[C@@H](CCS(C)(=O)=O)C(=O)OC(C)C)NC[C@@H](N)CS [L744,832, reference compound]	–	CVP formation ([1]; 3 nl of 5 mM L744,832 injected at 1-2 cell stage, 48 hpf): does not affect the formation of the CVP
CC(=O)C1=CCC(c2ccc(C)o2)N(S(=O)(=O)c2ccc(C)cc2)C1 (stereo not shown) [Compound 35]	inactive	–
CC(=O)C1=CCC(c2cccc3ccccc23)N(S(=O)(=O)c2ccc(C)cc2)C1 (stereo not shown) [Compound 37]	inactive	–
CC(=O)C1=CCC(c2ccccc2)N(S(=O)(=O)c2ccc(Cl)cc2)C1 (stereo not shown) [Compound 20]	showed inhibitory activity for venous angiogenesis	–
CC(=O)C1=CCC(c2ccc(Cl)cc2)N(S(=O)(=O)c2ccc(C)cc2)C1 (stereo not shown) [Compound 25]	diminished the antiangiogenic activity	–
CC(=O)C1=CCC(c2ccc(C)cc2)N(S(=O)(=O)c2ccc(C)cc2)C1 (stereo not shown) [Compound 26]	active	ranking in the angiogenesis test [1]: most active
CC(=O)C1=CCCN(S(=O)(=O)c2ccc(C)cc2)C1 [Compound 16]	developed a single-lumen caudal vein like aplexone, albeit in lower efficiency	–
CC(=O)C1=CCC(c2ccc(F)cc2)N(S(=O)(=O)c2ccc(C)cc2)C1 (stereo not shown) [Compound 24]	abolished the biological activity	–
CC(=O)C1=CCC(c2ccc(Cl)c(Cl)c2)N(S(=O)(=O)c2ccc(C)cc2)C1 (stereo not shown) [Compound 31]	not active	–
CC(C)C[C@H](NC(=O)c1ccc(NCc2cnc[nH]2)cc1-c1cccc2ccccc12)C(=O)O [GGTI-2133, reference compound]	–	CVP formation ([1]; 3 nl of 4 mM GGTI-2133 injected at 1-2 cell stage, 48 hpf): CVP phenotypes reminiscent of aplexone treatment
CC(C)c1c(C(=O)Nc2ccccc2)c(-c2ccccc2)c(-c2ccc(F)cc2)n1CC[C@@H](O)C[C@@H](O)CC(=O)O [atorvastatin, reference compound]	–	embryonic cholesterol levels [2]: reduce cholesterol level significantly; CVP formation at suboptimal level ([1]; 2 μM single agent): normal CVP; CVP formation ([1]; atorvastatin-treated embryos, from 10 hpf, imaged at 48 hpf): phenotypes similar to those observed in embryos exposed to aplexone
CC(=O)C1=CCC(c2cccn2C)N(S(=O)(=O)c2ccc(C)cc2)C1 (stereo not shown) [Compound 36]	inactive	–
CC(O)(CCO)CC(=O)O (stereo not shown) [mevalonate, reference compound]	–	effect on aplexone's inhibition of CVP formation ([1]; 1 nl of 2M mevalonate injected, 5 μM aplexone from 2 hpf): blocks the inhibitory effects of aplexone
CC(=O)C1=CCC(c2ccccc2)NC1 (stereo not shown) [Compound 11]	failed to inhibit the formation of CVP	–

Reference: patent publication US9084782B2, “Chemical inhibitors of cholesterol biosynthesis and venous angiogenesis” (The Regents of the University of California, priority 2011, dated 2015)
